The target of this assay is T1, sGC α1/β1 heterodimer (Homo sapiens, UniProt Q02108+Q02153).
T1 construct: expressed in transfected cells
T1 sequence (Q02108 1-690): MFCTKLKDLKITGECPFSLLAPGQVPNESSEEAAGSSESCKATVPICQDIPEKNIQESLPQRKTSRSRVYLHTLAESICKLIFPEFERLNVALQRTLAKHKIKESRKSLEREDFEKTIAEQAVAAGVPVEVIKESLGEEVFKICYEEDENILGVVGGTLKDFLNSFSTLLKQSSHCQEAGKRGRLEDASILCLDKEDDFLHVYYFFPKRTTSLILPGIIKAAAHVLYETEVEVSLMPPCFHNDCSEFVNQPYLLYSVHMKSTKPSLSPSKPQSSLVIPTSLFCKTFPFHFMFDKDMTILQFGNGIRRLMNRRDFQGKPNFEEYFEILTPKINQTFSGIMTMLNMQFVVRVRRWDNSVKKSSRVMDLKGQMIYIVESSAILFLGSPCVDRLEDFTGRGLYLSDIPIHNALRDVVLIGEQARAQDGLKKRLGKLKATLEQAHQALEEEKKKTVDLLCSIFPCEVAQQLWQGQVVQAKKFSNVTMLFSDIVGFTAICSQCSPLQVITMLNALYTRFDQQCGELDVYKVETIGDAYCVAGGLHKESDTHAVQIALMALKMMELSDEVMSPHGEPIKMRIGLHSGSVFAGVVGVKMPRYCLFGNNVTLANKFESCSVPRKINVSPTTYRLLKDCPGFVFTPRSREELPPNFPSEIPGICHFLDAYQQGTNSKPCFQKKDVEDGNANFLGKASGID
T1 sequence (Q02153 1-619): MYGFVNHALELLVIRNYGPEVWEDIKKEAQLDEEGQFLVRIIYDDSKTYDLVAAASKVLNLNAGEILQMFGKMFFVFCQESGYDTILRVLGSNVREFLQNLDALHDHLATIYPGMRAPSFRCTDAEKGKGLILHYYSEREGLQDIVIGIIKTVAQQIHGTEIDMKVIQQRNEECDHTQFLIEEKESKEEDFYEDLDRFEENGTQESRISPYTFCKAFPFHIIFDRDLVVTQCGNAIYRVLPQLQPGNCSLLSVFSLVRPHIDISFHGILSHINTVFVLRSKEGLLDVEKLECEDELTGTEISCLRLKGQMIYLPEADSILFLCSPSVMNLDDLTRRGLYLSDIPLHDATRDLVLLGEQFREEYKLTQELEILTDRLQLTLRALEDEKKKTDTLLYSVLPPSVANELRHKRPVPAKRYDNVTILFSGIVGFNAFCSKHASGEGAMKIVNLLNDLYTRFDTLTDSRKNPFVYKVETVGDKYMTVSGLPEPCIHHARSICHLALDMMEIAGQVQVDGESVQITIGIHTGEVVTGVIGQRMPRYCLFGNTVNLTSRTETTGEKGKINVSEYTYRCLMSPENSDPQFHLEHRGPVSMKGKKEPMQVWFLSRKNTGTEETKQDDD
Kind of assay: Cell-Based sGC Functional Assay (CASA Assay), cGMP generation in CHO-K1/sGC cells. Conditions: maximum cGMP production of Compound A set to 100% activation, read-out: % Act. (percent activation relative to Compound A). An excerpt:
sGC is a heme-containing enzyme that converts GTP to secondary messenger cGMP. Increases in cGMP levels affect several physiological processes including vasorelaxation through multiple downstream pathways. […] Heme-dependent activators (HDAs) preferentially activate sGC containing a ferrous heme group. To determine the effect of sGC activators on enzyme activity, the CASA assay was developed to monitor the generation of cGMP in a cell line that stably expresses the heterodimeric sGC protein.
A CHO-K1 cell line stably expressing the sGC α1/β1 heterodimer was generated using a standard transfection protocol. CHO-K1 cells were transfected with plasmids pIREShyghsGCα1 and pIRESneo-hsGCβ1 simultaneously using FUGENE reagent. Clones that stably express both subunits were selected with hygromycin and neomycin for ˜2 weeks. Clone #7 was chosen for the assay and was designated CHO-K1/sGC. CHO-K1/sGC cells were maintained in F-K12 medium containing 10% heat-inactivated Fetal Bovine Serum (FBS), 100 μg/mL penicillin/streptomycin, 0.5 mg/mL hygromycin and 0.25 mg/mL G418. The cells were then cryopreserved in LN2. On the day of the assay, cells thawed and resuspended in EBSS Assay Buffer (Sigma, E3024) supplemented with 5 mM MgCl2, 10 mM HEPES (4-(2-hydroxyethyl)piperazine-1-ethanesulfonic acid) and 0.05% BSA (bovine serum albumin) (EAB) and cell density was then adjusted to 4×10^5/mL with EAB. IBMX (3-isobutyl-1-methylxanthin, 0.5 mM) was added to inhibit degradation of cGMP. Compounds were diluted from DMSO stock solutions and added to the assay at a final DMSO concentration of 2.5%. Cells were incubated with compounds in the presence and absence of 1 μM of Diethylenetriamine/nitric oxide adduct (DETA-NO; Sigma, 17018) for 1 hr at 37° C. At the end of the incubation period, the reaction was terminated and the cells were lysed with the detection reagents from Cisbio Kits. The level of intracellular cGMP was determined using an HTRF-based assay kit (CisBio, 62GM2PEC), which detects the displacement of a fluorescence labeled cGMP from its specific antibody. The cGMP produced by test compounds was directly compared to the maximum cGMP production (this value was set to equal 100% activation.) of the published sGC-HDA Compound A:
[drawing 298] (Example 1 in WO 2010/065275, published Jun. 10, 2010). The test compounds' activities were then expressed as a percentage of Compound A, the standard in every experiment. This percent activation was calculated either in the presence or absence of DETA-NO which was then plotted. IP and maximum fold induction was derived using ADA analysis software for 4P fit.

Molecules are shown by their SMILES.

As to `CC1(c2ccc(F)cn2)C(=O)Nc2nc(-c3cn4ncnc4c(CCCC(F)(F)F)n3)nc(N)c21` (centres unmarked) [Example 22B, 4-amino-5-(5-fluoropyridin-2-yl)-5-methyl-2-(8-(4,4,4-trifluorobutyl)-[1,2,4]triazolo[1,5-a]pyrazin-6-yl)-5H-pyrrolo[2,3-d]pyrimidin-6(7H)-one], the Emax came out at 130%.
The figure for `C[C@@]1(c2ccc(F)cc2)C(=O)Nc2nc(-c3cn4ncnc4c(CCCC(F)(F)F)n3)nc(N)c21` [Example 23A, (S)-4-amino-5-(4-fluorophenyl)-5-methyl-2-(8-(4,4,4-trifluorobutyl)-[1,2,4]triazolo[1,5-a]pyrazin-6-yl)-5,7-dihydro-6H-pyrrolo[2,3-d]pyrimidin-6-one] is 163%; for `CC1(c2ccc(C(F)(F)F)cc2)C(=O)Nc2nc(-c3cn4ncnc4c(CCCC(F)(F)F)n3)nc(N)c21` (centres unmarked) [Example 24B, 4-amino-5-methyl-2-(8-(4,4,4-trifluorobutyl)-[1,2,4]triazolo[1,5-a]pyrazin-6-yl)-5-(4-(trifluoromethyl)phenyl)-5H-pyrrolo[2,3-d]pyrimidin-6(7H)-one] it is 133%; for `CC1(c2ccc(Cl)cn2)C(=O)Nc2nc(-c3cn4ncnc4c(CCCC(F)(F)F)n3)nc(N)c21` (centres unmarked) [Example 26A, 4-amino-5-(5-chloropyridin-2-yl)-5-methyl-2-(8-(4,4,4-trifluorobutyl)-[1,2,4]triazolo[1,5-a]pyrazin-6-yl)-5H-pyrrolo[2,3-d]pyrimidin-6(7H)-one] it is 162%.
Take `Nc1nc(-c2cn3ncnc3c(CCCC(F)(F)F)n2)nc2c1C(c1ccc(Cl)cn1)(C1CC1)C(=O)N2` (centres unmarked) [Example 27A, 4-amino-5-(5-chloropyridin-2-yl)-5-cyclopropyl-2-(8-(4,4,4-trifluorobutyl)-[1,2,4]triazolo[1,5-a]pyrazin-6-yl)-5H-pyrrolo[2,3-d]pyrimidin-6(7H)-one]: the Emax is 178%.
In the case of `CC1(c2ccc(Cl)c(F)c2)C(=O)Nc2nc(-c3cn4ncnc4c(CCCC(F)(F)F)n3)nc(N)c21` (centres unmarked) [Example 28B, 4-amino-5-(4-chloro-3-fluorophenyl)-5-methyl-2-(8-(4,4,4-trifluorobutyl)-[1,2,4]triazolo[1,5-a]pyrazin-6-yl)-5H-pyrrolo[2,3-d]pyrimidin-6(7H)-one], the Emax came out at 171%.
The result for `CC1(c2ccc(Cl)cc2)C(=O)Nc2nc(-c3cn4ncnc4c(CCCC(F)(F)F)n3)nc(N)c21` (centres unmarked) [Example 29A, 4-amino-5-(4-chlorophenyl)-5-methyl-2-(8-(4,4,4-trifluorobutyl)-[1,2,4]triazolo[1,5-a]pyrazin-6-yl)-5H-pyrrolo[2,3-d]pyrimidin-6(7H)-one] reads 101%; that for `Nc1nc(-c2cn3ncnc3c(CCCC(F)(F)F)n2)nc2c1C(c1ccc(F)cc1)(C1CC1)C(=O)N2` (centres unmarked) [Example 30B, 4-amino-5-cyclopropyl-5-(4-fluorophenyl)-2-(8-(4,4,4-trifluorobutyl)-[1,2,4]triazolo[1,5-a]pyrazin-6-yl)-5H-pyrrolo[2,3-d]pyrimidin-6(7H)-one], 117%.
The figure for `Nc1nc(-c2cn3ncnc3c(CCCC(F)(F)F)n2)nc2c1C(c1ccc(Cl)cc1)(C1CC1)C(=O)N2` (centres unmarked) [Example 31B, 4-amino-5-(4-chlorophenyl)-5-cyclopropyl-2-(8-(4,4,4-trifluorobutyl)-[1,2,4]triazolo[1,5-a]pyrazin-6-yl)-5H-pyrrolo[2,3-d]pyrimidin-6(7H)-one] is 104%.
Regarding `Nc1nc(-c2cn3ncnc3c(CCCC(F)(F)F)n2)nc2c1C(c1ccc(F)c(F)c1)(C1CC1)C(=O)N2` (centres unmarked) [Example 32A, 4-amino-5-cyclopropyl-5-(3,4-difluorophenyl)-2-(8-(4,4,4-trifluorobutyl)-[1,2,4]triazolo[1,5-a]pyrazin-6-yl)-5H-pyrrolo[2,3-d]pyrimidin-6(7H)-one], the Emax was determined as 144%.
Take `Nc1nc(-c2cn3ncnc3c(CCCC(F)(F)F)n2)nc2c1C(c1ccc(C(F)(F)F)cc1)(C1CC1)C(=O)N2` (centres unmarked) [Example 35A, 4-amino-5-cyclopropyl-2-(8-(4,4,4-trifluorobutyl)-[1,2,4]triazolo[1,5-a]pyrazin-6-yl)-5-(4-(trifluoromethyl)phenyl)-5H-pyrrolo[2,3-d]pyrimidin-6(7H)-one]: the Emax was 164%.
The figure for `CC1(c2ccccc2)C(=O)Nc2nc(-c3cn4ncnc4c(CCCC(F)(F)F)n3)nc(N)c21` (centres unmarked) [Example 37B, 4-amino-5-methyl-5-phenyl-2-(8-(4,4,4-trifluorobutyl)-[1,2,4]triazolo[1,5-a]pyrazin-6-yl)-5H-pyrrolo[2,3-d]pyrimidin-6(7H)-one] is 112%; for `CC1(c2ccc(F)c(F)c2)C(=O)Nc2nc(-c3cn4ncnc4c(CCCC(F)(F)F)n3)nc(N)c21` (centres unmarked) [Example 38B, 4-amino-5-(3,4-difluorophenyl)-5-methyl-2-(8-(4,4,4-trifluorobutyl)-[1,2,4]triazolo[1,5-a]pyrazin-6-yl)-5H-pyrrolo[2,3-d]pyrimidin-6(7H)-one] it is 120%.
On to `COc1ccc(C2(C)C(=O)Nc3nc(-c4cn5ncnc5c(CCCC(F)(F)F)n4)nc(N)c32)nc1` (centres unmarked) [Example 40A, 4-amino-5-(5-methoxypyridin-2-yl)-5-methyl-2-(8-(4,4,4-trifluorobutyl)-[1,2,4]triazolo[1,5-a]pyrazin-6-yl)-5H-pyrrolo[2,3-d]pyrimidin-6(7H)-one], for which the Emax amounted to 130%.
With `CC1(c2ccc(F)c(Cl)c2)C(=O)Nc2nc(-c3cn4ncnc4c(CCCC(F)(F)F)n3)nc(N)c21` (centres unmarked) [Example 42B, 4-amino-5-(3-chloro-4-fluorophenyl)-5-methyl-2-(8-(4,4,4-trifluorobutyl)-[1,2,4]triazolo[1,5-a]pyrazin-6-yl)-5H-pyrrolo[2,3-d]pyrimidin-6(7H)-one], the Emax was 82%.
`CC1(c2ccc(C(F)F)cn2)C(=O)Nc2nc(-c3cn4ncnc4c(CCCC(F)(F)F)n3)nc(N)c21` (centres unmarked) [Example 43B, 4-amino-5-(5-(difluoromethyl)pyridin-2-yl)-5-methyl-2-(8-(4,4,4-trifluorobutyl)-[1,2,4]triazolo[1,5-a]pyrazin-6-yl)-5H-pyrrolo[2,3-d]pyrimidin-6(7H)-one]: the Emax was determined as 69%.
Regarding `Cc1ccc(C2(C)C(=O)Nc3nc(-c4cn5ncnc5c(CCCC(F)(F)F)n4)nc(N)c32)nc1` (centres unmarked) [Example 46B, 4-amino-5-methyl-5-(5-methylpyridin-2-yl)-2-(8-(4,4,4-trifluorobutyl)-[1,2,4]triazolo[1,5-a]pyrazin-6-yl)-5H-pyrrolo[2,3-d]pyrimidin-6(7H)-one], the Emax worked out at 67%.

The record behind these values is patent US10925876B2, “Methods for using triazolo-pyrazinyl soluble guanylate cyclase activators in fibrotic disorders” (Merck Sharp & Dohme Corp., priority 2016, dated 2021).
